# In patent EP1621631A1, “Method for the production of C6 and/or C9 aldehydes and alcohols in plants by 9/13 divinyl ether synthase” (Georg-August-Universität Göttingen, priority 2004, dated 2006):
# What was measured:
# [1] = tested on: 9/13-Divinylethersynthase aus Knoblauch; experiment: Photometric determination of the substrate specificity of 9/13-DES; type: biochemical; details: purified 9/13-DES; 100 µM hydroperoxide; room temperature; decrease of extinction at 234 or 236 nm over one minute
# Method: Für die Bestimmung der Substratspezifität wurde die 9/13-Divinylethersynthase aus Knoblauch aus einer Expressionskultur aufgereinigt. Dazu wurde zunächst eine 400 ml Expressionskultur unter den schon vorher beschriebenen Bedingungen angeimpft und angezogen. Die Zellen wurden nach zweitägiger Inkubation durch 15-minütige Zentrifugation mit 4000 g bei 4°C sedimentiert. Das Sediment wurde in 20 ml 50 mM Na-Phosphat, pH 8, resuspendiert und mit Ultraschall (Sonopuls GM 70, Bandelin, Berlin) für 5-Mal eine Minute bei 50 % Leistung und 50 % Impuls aufgeschlossen. Die Zelltrümmer wurden 15 min bei 4000 x g sedimentiert und aus dem Überstand wurden durch eine weitere Zentrifugation (1 h bei 100000 x g) die Zellmembranen sedimentiert. Das Membransediment wurde für 1 h in 50 mM Na-Phosphat, pH 8, mit 1M NaCl und 0,1 % (v/v) TritonX-100 inkubiert, um die Membranproteine zu solubilisieren. Anschließend wurde erneut 1 h bei 100000 x g zentrifugiert. Der Überstand wurde mit Talon Metal Affinity Resin (Clontech, Palo Alto, USA) (200 µl Bettvolumen) über Nacht bei 4 °C geschüttelt. Danach wurde das Material auf eine Leersäule (T.J. Baker, Phillipsburg, N.J., USA) gegeben. Die Elution erfolgte mit 3 ml 50 mM Tris/HCl pH 6,3, 10 % Glycerin, 0,1 % Tween 20, 0,5 M NaCl und 0,1 M EDTA. Durch eine PD-10 Säule (Amersham pharmacia biotech, UK) wurde das Protein in 50 mM Na-Phosphat-Puffer pH 8 umgepuffert.
# Das so aufgereinigte Protein wurde für die Tests im Photometer eingesetzt. Die Messungen erfolgten bei Raumtemperatur und es wurde immer bei der Wellenlänge des eingesetzten Hydroperoxids (234 bzw. 236 nm) bei einer Konzentration 100 µM für eine Minute die Abnahme der Extinktion aufgezeichnet. Die Messungen erfolgten in einer 100 µl Quarzküvette. Die Reaktion wurde durch die Zugaben von 1 µl der Proteinlösung gestartet.
# [2] = tested on: 9/13-DES; experiment: Determination of the pH optimum of 9/13-DES (endpoint determination by normal-phase and reversed-phase HPLC); type: biochemical, Knoblauch; details: substrate of recombinant 9/13-DES; pH 5,5 bis 8,6; no pH optimum could be determined
# Method: Das pH-Optimum wurde mittels einer Endpunktbestimmung mit Hilfe der Normal-Phasen-HPLC und der Umkehr-Phasen-HPLC ermittelt. Es wurden sowohl 9-HPOD als auch 13-HPOD als Substrate der DES verwendet. Für die Bestimmung des pH-Optimums wurde die Umsetzung bei pH-Werten von 4,5 bis 8,5 in Schritten von 0,5 pH-Einheiten durchgeführt. Für pH 7 wurden zweimal drei Messungen durchgeführt, da für diesen pH-Wert sowohl ein 50 mM Natrium-Phosphatpuffer als auch ein 50 mM Tris/HCl-Puffer verwendet wurde. Für die Umsetzungen wurden zwischen 25 und 80 nmol der Hydroperoxide eingesetzt. Von dem einzelnen Hydroperoxid wurde dabei immer die gleiche Menge für jede Umsetzung eingesetzt. Parallel zu den Proben für den pH-Optimumstest wurden drei Ansätze mit Zelllysat des leeren Vektors in E. coli mit 13-HPOD inkubiert. Die Leervektorkontrolle zeigte keine Divinylether-Bildung, es konnte nur das Hydroperoxid nachgewiesen werden.
compound,measurement,setting,value
"CC/C=C\C[C@@H](/C=C/C=C\CCCCCCCC(=O)O)OO [13-HPOT, (9Z, 11E, 13S, 15Z)-13-Hydroperoxy-9,11,15-Octadecatriensäure]",Substratspezifität (Umsetzung durch 9/13-DES),[1],wesentlich weniger stark umgesetzt
"CCCCC[C@@H](/C=C/C=C\CCCCCCCC(=O)O)OO [13-HPOD, (13S, 9Z, 11E)-13-Hydroperoxy-9,11-Octadecadiensäure]",Substratspezifität (Umsetzung durch 9/13-DES),[1],bevorzugt
"CCCCC/C=C\C=C\[C@H](CCCCCCCC(=O)O)OO [9-HPOD, (9S, 10E, 12Z)-9-Hydroperoxy-10,12-Octadecadiensäure]",Umsetzung über den pH-Bereich,[2],gleich gut umgesetzt
same,Substratspezifität (Umsetzung durch 9/13-DES),[1],in etwas geringerem Maße
"CC/C=C\C/C=C\C=C\[C@H](CCCCCCCC(=O)O)OO [9-HPOT, (9S, 10E, 12Z, 15Z)-9-Hydroperoxy-10,12,15-Octadecatriensäure]",Substratspezifität (Umsetzung durch 9/13-DES),[1],wesentlich weniger stark umgesetzt
